According to article PMC10730852 (Communications Biology, 2023):
“And” between values parts separate entries of the source, which are not always exact repeats. Equal values may be shown once. Read-outs that look alike come from different tables or passages of the source.

What was measured:
Cph001 [1] = assay: Coupled enzyme assay and Michaelis-Menten kinetics of Cph001; assay type: biochemical, Streptosporangium roseum; conditions: for initial velocity, Figure 3c ii, Triplicate: 2 mM GTP; for initial velocity, Figure 3c i, Triplicate: 2 mM ATP; for absorbance at 340 nm, Average of triplicate: 2 mM substrate + ATP
Experimental: The phosphorylation reaction was measured by a coupled enzyme assay as following. […] The reactions were mixed well in a final volume of 200 μL in 96-well plates. The Cph001 activity was assayed by determining the oxidation of NADH at 340 nm. The reaction buffer and enzyme concentration of the Cph reaction was followed by previous study. The 340 nm absorbance changes were detected at 30 °C for every 1 min at a time in 15 min on an EPOCH Microplate Reader (BioTek). All reactions were carried out in triplicate.
The initial velocity data were plotted against substrate concentrations and fit the Michaelis-Menten equation. The Km and Vmax values were calculated based on the Michaelis-Menten equation. GraphPad Prism was used for statistical data analysis. All reactions were carried out in triplicate.

Cph = system: Cph; design: method as in Previous kinetic studies; conditions: ATP as a phosphate donor; ref Previous kinetic studies; read-out: Km value of Cph for CMN IIA; cited from earlier work
Cph001 [2] = molecular target: T1, Cph001 (Streptosporangium roseum, UniProt D2B3F1); assay: Isothermal titration calorimetry (ITC) analysis of Cph001; assay type: binding
T1 sequence (D2B3F1 1-286): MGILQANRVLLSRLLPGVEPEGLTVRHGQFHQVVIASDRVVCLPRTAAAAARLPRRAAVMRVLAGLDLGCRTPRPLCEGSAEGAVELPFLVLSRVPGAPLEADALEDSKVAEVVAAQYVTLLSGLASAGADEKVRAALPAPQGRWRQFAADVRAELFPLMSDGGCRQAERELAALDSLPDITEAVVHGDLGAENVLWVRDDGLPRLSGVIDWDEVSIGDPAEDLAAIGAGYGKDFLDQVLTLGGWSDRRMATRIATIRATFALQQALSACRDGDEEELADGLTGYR
Source text: The integrated heat areas constitute a differential binding curve that was fitted with a standard single-site binding model by Origin 7.

N=C1NCCC([C@@H]2NC(=O)/C(=C/NC(N)=O)NC(=O)[C@H](CNC(=O)C[C@@H](N)CCCN)NC(=O)[C@H](CO)NC(=O)[C@@H](N)CNC2=O)N1 (stereo in doubt) [CMN IIA]
initial velocity, Figure 3c ii, Triplicate (Cph001 [1]; 0.4 mM CMN IIA): 5.814e-5 and 4.992e-5 and 4.228e-5
initial velocity, Figure 3c i, Triplicate (Cph001 [1]; 0.5 mM CMN IIA): 0.0001245 and 0.0001897 and 0.0001595
initial velocity, Figure 3c ii, Triplicate (Cph001 [1]; 0.5 mM CMN IIA): 6.636e-5 and 7.341e-5 and 7.765e-5
initial velocity, Figure 3c i, Triplicate (Cph001 [1]; 0.7 mM CMN IIA): 0.0002053 and 0.000222 and 0.0002263
initial velocity, Figure 3c ii, Triplicate (Cph001 [1]; 0.7 mM CMN IIA): 9.514e-5 and 7.693e-5 and 6.952e-5
initial velocity, Figure 3c i, Triplicate (Cph001 [1]; 1 mM CMN IIA): 0.0002288 and 0.0002649 and 0.0003551
initial velocity, Figure 3c ii, Triplicate (Cph001 [1]; 1 mM CMN IIA): 0.0001233 and 0.000121 and 0.0001065
initial velocity, Figure 3c i, Triplicate (Cph001 [1]; 2 mM CMN IIA): 0.0003304 and 0.0004291 and 0.0004233
initial velocity, Figure 3c ii, Triplicate (Cph001 [1]; 2 mM CMN IIA): 0.0002014 and 0.0002003 and 0.0001825
phosphorylation by Cph001 in couple enzyme assay (Cph001 [1]; 2 mM antibiotic substrate, ATP as phosphate donor, absorbance at 340 nm): decrease in absorbance at 340 nm
initial velocity, Figure 3c i, Triplicate (Cph001 [1]; 4 mM CMN IIA): 0.0003294 and 0.0004402 and 0.000432
initial velocity, Figure 3c ii, Triplicate (Cph001 [1]; 4 mM CMN IIA): 0.0001744 and 0.0002267 and 0.0002057
initial velocity, Figure 3c i, Triplicate (Cph001 [1]; 6 mM CMN IIA): 0.0003263 and 0.0004514 and 0.0003777
initial velocity, Figure 3c ii, Triplicate (Cph001 [1]; 6 mM CMN IIA): 0.0002402 and 0.000232 and 0.000183
Km (Cph001 [1]; ATP as phosphate donor (2 mM), pseudo-first-order conditions, mean ± SEM, n = 3, read-out: apparent Michaelis constant (Km) of CMN IIA): 880 ± 200 µM
Km (Cph001 [1]; ATP series, first manuscript version as quoted by Reviewer #1, read-out: measured Km of CMN IIA): 876 µM
Km (Cph001 [1]; GTP series, first manuscript version as quoted by Reviewer #1, read-out: measured Km of CMN IIA): 1400 µM
Km (Cph001 [1]; saturating GTP as phosphate donor (2 mM), mean ± SEM, n = 3, read-out: apparent Km of CMN IIA): 1400 ± 240 µM
absorbance at 340 nm, Average of triplicate (Cph001 [1]; time 00:00:00): 1.495
absorbance at 340 nm, Average of triplicate (Cph001 [1]; time 00:01:00): 1.277
absorbance at 340 nm, Average of triplicate (Cph001 [1]; time 00:02:00): 0.9337
absorbance at 340 nm, Average of triplicate (Cph001 [1]; time 00:03:00): 0.6673
absorbance at 340 nm, Average of triplicate (Cph001 [1]; time 00:04:00): 0.5687
absorbance at 340 nm, Average of triplicate (Cph001 [1]; time 00:05:00): 0.52
absorbance at 340 nm, Average of triplicate (Cph001 [1]; time 00:06:00): 0.3975
absorbance at 340 nm, Average of triplicate (Cph001 [1]; time 00:07:00): 0.2841
absorbance at 340 nm, Average of triplicate (Cph001 [1]; time 00:08:00): 0.2044
absorbance at 340 nm, Average of triplicate (Cph001 [1]; time 00:09:00): 0.1613
absorbance at 340 nm, Average of triplicate (Cph001 [1]; time 00:10:00): 0.1364
absorbance at 340 nm, Average of triplicate (Cph001 [1]; time 00:11:00): 0.1231
absorbance at 340 nm, Average of triplicate (Cph001 [1]; time 00:12:00): 0.1177
absorbance at 340 nm, Average of triplicate (Cph001 [1]; time 00:13:00): 0.1173
absorbance at 340 nm, Average of triplicate (Cph001 [1]; time 00:14:00): 0.1173
absorbance at 340 nm, Average of triplicate (Cph001 [1]; time 00:15:00): 0.1177
Km (Cph): 460 µM
Kd (Cph001 [2]): 1.24 ± 0.08 µM
